From patent US12194004B2, “Nano-delivery carrier for targeted tumor administration and application thereof” (Guizhou Provincial People's Hospital, priority 2023, dated 2025) come the findings set out here.

For the assay, the system named is SKOV3 cells. In words: Cell viability detection with CCK-8 detection reagent. The format is cell-based. The settings on record: SKOV3 cells treated at different (increasing) concentrations for 24 h. Here is the method:
In order to verify whether RVT can cause death of the tumor cells, SKOV3 cells are treated with RVT at different concentrations for 24 h, and viability of the SKOV3 cells treated with RVT is detected by using a cell counting kit-8 (CCK-8) detection reagent.
In addition, the SKOV3 cells are treated with PEG-SPIO at different concentrations for 24 h, and the viability of the SKOV3 cells treated with PEG-SPIO is detected by using the CCK-8 detection reagent.
Furthermore, the SKOV3 cells are treated with RVT-encapsulated PEG-SPIO-RVT nanoparticles for 24 h, and the viability of the SKOV3 cells treated with RVT-encapsulated PEG-SPIO-RVT nanoparticles is detected by using the CCK-8 detection reagent. The results are the same as that of treating with RVT alone.
In general terms: Formazan colour is commonly taken as a measure of viable cells.

Consider `Oc1ccc(/C=C/c2cc(O)cc(O)c2)cc1` [RVT, 3,4′,5-trihydroxy-trans-stilbene], for which the “viability of the SKOV3 cells” value is given as “gradually shows a downward trend”.
